ChEMBL document CHEMBL1201862, “PubChem BioAssay data set” (2004)
Active and inactive are the calls of the source.

Legend:
[1] = molecular target: T1, Low molecular weight phosphotyrosine protein phosphatase (Homo sapiens, UniProt P24666); type: functional; details: read-out: IC50_Mean
T1 sequence (P24666 whole entry): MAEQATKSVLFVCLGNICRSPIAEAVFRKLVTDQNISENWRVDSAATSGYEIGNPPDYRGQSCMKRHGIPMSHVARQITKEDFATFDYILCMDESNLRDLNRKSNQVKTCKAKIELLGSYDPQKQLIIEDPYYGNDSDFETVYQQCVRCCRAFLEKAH

[2] = molecular target: T1, Low molecular weight phosphotyrosine protein phosphatase; type: functional; details: read-out: IC50_Mean; remark: listed apart in the source
[3] = Luminescence Cell-Based Dose Retest to Confirm Inhibitors of Cancer Stem Cells. [Related pubchem assays (depositor defined):AID2717, AID2721]; type: functional; details: Homo sapiens
INS1 = assay: beta cell apoptosis inhibitors, cytokine rescue, dose response, luminescence, retest (AID 449756); type: functional, cell-based; details: Rattus norvegicus;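 further: cell death triggered by IL-1 beta plus TNF-alpha plus IFN-gamma mixture; protective hits raise ATP signal compared with cytokine alone wells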
Melanocortin receptor 4 = Melanocortin receptor 4 (Homo sapiens, UniProt P32245); assay: MC4R antagonist potency on cAMP, dose response, cell-based, TR-FRET, biased antagonists (AID 602298); type: functional;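 further: antagonist potency against agonist-stimulated cAMP production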
Sequence of Melanocortin receptor 4 (P32245 whole entry): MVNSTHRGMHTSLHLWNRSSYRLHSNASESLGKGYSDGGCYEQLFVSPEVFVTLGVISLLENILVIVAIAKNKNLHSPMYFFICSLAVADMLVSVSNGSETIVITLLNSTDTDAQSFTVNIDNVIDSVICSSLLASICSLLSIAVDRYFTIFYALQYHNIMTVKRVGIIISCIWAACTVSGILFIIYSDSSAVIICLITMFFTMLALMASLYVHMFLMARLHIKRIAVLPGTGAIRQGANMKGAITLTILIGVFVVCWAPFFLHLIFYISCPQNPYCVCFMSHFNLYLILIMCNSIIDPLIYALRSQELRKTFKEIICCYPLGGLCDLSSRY

[4] = nonselective inhibitors of cellular cAMP signaling, dose response, counter-screen for MC4R biased antagonist project, cell-based, TR-FRET cAMP detection (AID 602305); type: functional;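 further: U2OS cells stimulated with forskolin near its EC80 as the cAMP inducer; potency is for inhibition of forskolin-stimulated cAMP signaling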
Paired box protein Pax-8 = Paired box protein Pax-8 (Homo sapiens, UniProt Q06710); assay: inhibitors of PAX8-driven TPO luciferase reporter, dose response, RMG-I cells, cherry-pick (AID 687027); type: functional, cell-based;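 further: luciferase reporter driven by Pax8 target thyroperoxidase promoter measured by SteadyGlo luminescence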
Sequence of Paired box protein Pax-8 (Q06710 whole entry): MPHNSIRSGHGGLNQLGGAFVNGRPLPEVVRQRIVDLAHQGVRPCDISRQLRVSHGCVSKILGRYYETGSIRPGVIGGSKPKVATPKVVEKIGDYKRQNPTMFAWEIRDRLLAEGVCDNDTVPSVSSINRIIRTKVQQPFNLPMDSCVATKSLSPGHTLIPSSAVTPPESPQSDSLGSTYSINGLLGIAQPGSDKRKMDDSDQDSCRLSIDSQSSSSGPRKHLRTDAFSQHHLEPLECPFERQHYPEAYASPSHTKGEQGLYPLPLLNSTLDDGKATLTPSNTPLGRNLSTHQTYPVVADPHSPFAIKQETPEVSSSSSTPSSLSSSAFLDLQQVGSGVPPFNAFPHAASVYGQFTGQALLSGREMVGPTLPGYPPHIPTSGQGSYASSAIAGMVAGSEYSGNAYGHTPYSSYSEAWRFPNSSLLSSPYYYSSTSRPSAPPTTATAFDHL

[5] = non-specific cell cytotoxicity, dose response, cytotoxicity control for PAX8 inhibitor project, plate reader, dry powder samples (AID 743021); type: functional, cell-based
[6] = NIH-3T3 fibroblast cytotoxicity, dose response, cytotoxicity control, cell-based, fluorescence, Alamar Blue, secondary assay (AID 2327); type: functional;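 further: NIH-3T3 mouse fibroblasts cultured with fluconazole at 8 µg/mL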
[7] = C. albicans growth with fluconazole, confirmation, fluorescence, retest (AID 2467); type: functional, cell-based
[8] = inhibitors of intracellular T. cruzi replication, confirmation, NIH3T3 host cells, beta-gal luminescence (AID 2044); type: functional, cell-based;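 further: intracellular parasites grown in NIH/3T3 mouse fibroblasts as host cells; luminescent beta-galactosidase reporter signal from transgenic T. cruzi replicating inside host cells; inhibitors lower the luminescence signal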
[9] = molecular target: T2, Serine/threonine-protein phosphatase (Candida dubliniensis (strain CD36 / CBS 7987 / NCPF 3949 / NRRLY-17841) (Yeast), UniProt B9W6M3); assay: calcineurin pathway inhibitors in yeast reporter, dose response, S. cerevisiae, CDRE-lacZ, luminescence, secondary (AID 2388); type: functional, cell-based;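 further: yeast reporter cells carrying a calcineurin-responsive lacZ construct stimulated with calcium chloride; luminescent beta-galactosidase reporter signal in whole cells rather than isolated phosphatase activity; potency for inhibition where a drop in reporter signal means calcineurin blockade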
T2 sequence (B9W6M3 whole entry): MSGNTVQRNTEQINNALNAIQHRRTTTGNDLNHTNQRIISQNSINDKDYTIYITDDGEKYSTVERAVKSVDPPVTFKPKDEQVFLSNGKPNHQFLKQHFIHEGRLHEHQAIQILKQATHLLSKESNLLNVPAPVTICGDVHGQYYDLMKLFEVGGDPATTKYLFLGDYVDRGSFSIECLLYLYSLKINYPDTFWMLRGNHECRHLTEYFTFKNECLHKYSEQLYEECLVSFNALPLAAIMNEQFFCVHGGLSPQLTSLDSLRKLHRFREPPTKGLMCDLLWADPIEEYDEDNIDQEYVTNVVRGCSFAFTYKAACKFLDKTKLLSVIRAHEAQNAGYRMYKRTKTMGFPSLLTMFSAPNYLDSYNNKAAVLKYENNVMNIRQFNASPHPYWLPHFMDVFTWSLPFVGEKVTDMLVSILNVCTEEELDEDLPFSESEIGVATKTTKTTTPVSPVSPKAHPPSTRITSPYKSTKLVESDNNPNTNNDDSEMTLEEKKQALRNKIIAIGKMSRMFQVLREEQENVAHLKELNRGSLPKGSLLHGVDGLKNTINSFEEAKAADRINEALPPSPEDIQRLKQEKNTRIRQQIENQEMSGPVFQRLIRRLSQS

[10] = cytotoxicity toward NIH3T3 fibroblasts, dose response, counter-screen, cell-based, ATP luminescence, mouse fibroblasts (AID 2010); type: functional;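 further: cells exposed to compound for about 90 hours before reading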
Beta-galactosidase = Beta-galactosidase (Escherichia coli, UniProt Q8VNN2); assay: beta-galactosidase enzyme inhibitors and activators, dose response, artefact control for CCR6 antagonist project, biochemical, E. coli enzyme, set 3 (AID 504712); type: functional
Sequence of Beta-galactosidase (Q8VNN2 whole entry): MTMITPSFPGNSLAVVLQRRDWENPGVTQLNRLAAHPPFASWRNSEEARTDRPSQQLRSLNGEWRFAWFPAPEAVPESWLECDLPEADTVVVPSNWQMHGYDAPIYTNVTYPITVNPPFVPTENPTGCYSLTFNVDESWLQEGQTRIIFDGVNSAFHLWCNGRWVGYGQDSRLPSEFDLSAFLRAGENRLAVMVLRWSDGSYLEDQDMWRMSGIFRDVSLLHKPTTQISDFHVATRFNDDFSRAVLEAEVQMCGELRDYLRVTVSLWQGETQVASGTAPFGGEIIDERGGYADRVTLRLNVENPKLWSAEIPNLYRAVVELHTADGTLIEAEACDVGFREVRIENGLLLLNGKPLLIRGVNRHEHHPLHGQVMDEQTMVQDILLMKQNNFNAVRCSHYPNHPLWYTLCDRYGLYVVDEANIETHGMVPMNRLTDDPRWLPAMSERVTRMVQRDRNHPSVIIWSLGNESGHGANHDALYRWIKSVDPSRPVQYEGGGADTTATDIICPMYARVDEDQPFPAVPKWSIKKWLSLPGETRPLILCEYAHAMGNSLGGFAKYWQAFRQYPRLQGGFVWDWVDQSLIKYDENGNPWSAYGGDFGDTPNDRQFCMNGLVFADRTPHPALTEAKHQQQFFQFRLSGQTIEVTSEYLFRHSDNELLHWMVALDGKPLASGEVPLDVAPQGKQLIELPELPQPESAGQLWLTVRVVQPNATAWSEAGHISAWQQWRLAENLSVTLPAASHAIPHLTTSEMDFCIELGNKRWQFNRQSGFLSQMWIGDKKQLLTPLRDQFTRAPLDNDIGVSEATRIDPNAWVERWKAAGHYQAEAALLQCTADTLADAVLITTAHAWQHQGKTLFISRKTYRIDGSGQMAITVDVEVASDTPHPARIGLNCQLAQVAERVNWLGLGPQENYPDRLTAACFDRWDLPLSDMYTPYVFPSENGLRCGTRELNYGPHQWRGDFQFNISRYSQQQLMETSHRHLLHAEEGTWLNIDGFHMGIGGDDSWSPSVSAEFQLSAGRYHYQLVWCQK

[11] = molecular target: ATP-dependent molecular chaperone HSP82 (Candida albicans (strain WO-1) (Yeast), UniProt C4YTQ8); assay: loss of DOC-induced GRE-beta-galactosidase reporter signal, dose response, Hsp90 inhibitor project, S. cerevisiae, luminescence (AID 2400); type: functional, cell-based;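 further: beta-galactosidase luminescence from glucocorticoid response element reporter as proxy for Hsp90 function; inhibitor potency where signal loss means Hsp90 inhibition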
Sequence of ATP-dependent molecular chaperone HSP82 (C4YTQ8 whole entry): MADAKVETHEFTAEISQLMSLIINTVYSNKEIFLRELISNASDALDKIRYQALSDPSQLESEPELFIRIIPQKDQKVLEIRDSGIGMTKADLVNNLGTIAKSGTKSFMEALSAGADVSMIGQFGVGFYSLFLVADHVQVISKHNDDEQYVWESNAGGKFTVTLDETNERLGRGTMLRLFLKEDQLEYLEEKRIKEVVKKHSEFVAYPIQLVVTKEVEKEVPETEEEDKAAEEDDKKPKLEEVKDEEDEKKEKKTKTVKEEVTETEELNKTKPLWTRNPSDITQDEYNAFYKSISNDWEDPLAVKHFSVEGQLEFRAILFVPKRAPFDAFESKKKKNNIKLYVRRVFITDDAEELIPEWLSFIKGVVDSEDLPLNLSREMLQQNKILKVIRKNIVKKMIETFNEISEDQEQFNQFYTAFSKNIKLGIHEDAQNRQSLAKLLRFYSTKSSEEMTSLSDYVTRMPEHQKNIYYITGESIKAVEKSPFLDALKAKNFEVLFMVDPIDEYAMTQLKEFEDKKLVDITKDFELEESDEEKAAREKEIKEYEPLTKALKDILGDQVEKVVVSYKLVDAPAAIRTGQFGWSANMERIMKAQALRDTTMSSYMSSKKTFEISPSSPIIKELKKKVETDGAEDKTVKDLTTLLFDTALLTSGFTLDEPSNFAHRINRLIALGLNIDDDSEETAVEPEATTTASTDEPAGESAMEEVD

[12] = molecular target: Nuclear receptor subfamily 5 group A member 2 (Homo sapiens, UniProt O00482); type: functional, cell-based;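 further: HEK293T cells transfected with LRH-1 and a StAR promoter luciferase reporter; potency for inhibitors that lower LRH-1 driven reporter light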
Sequence of Nuclear receptor subfamily 5 group A member 2 (O00482 whole entry): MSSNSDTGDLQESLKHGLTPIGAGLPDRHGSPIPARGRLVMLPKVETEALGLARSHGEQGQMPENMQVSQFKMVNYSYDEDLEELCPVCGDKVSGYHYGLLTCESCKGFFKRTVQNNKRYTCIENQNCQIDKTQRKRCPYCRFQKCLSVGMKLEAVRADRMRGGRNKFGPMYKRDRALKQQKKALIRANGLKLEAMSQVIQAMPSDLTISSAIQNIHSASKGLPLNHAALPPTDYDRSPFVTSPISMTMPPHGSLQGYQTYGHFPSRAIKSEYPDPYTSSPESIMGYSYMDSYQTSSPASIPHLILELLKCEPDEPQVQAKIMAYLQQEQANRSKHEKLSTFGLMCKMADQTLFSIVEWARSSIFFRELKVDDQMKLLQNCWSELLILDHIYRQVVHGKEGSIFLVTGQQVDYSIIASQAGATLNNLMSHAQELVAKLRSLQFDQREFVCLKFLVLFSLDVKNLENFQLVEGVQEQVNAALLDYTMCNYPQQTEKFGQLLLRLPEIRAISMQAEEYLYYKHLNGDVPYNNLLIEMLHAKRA

Steroidogenic factor 1 = Steroidogenic factor 1 (Homo sapiens, UniProt Q13285); assay: Counterscreen for inverse agonists of the liver receptor homolog-1 (LRH-1; NR5A2): Luminescence-based cell-based high throughput dose response assay to identify inverse agonists of the Steroidogenic Factor 1 Nuclear Receptor (SF1; NR5A1).; type: functional
Sequence of Steroidogenic factor 1 (Q13285 whole entry): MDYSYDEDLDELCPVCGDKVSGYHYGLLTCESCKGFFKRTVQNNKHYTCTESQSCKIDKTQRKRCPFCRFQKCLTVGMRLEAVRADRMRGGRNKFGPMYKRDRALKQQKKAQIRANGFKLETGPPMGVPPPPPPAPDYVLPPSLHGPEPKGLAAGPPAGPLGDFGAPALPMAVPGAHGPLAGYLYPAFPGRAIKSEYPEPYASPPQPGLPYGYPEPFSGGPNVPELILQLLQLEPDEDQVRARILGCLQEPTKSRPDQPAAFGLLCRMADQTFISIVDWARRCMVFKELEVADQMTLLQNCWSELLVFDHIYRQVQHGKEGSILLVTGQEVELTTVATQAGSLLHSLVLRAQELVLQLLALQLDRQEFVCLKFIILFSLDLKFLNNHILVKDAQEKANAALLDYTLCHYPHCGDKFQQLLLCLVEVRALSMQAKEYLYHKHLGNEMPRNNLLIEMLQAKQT

[13] = StAR promoter reporter inhibition counter-screen, dose response, counter-screen for LRH-1 inverse agonist project, cell-based, luminescence, luciferase reporter (AID 651969); type: functional
[14] = molecular target: Adenosylmethionine-8-amino-7-oxononanoate aminotransferase (Mycobacterium tuberculosis, UniProt P9WQ81); assay: Mycobacterium tuberculosis BioA enzyme inhibitor Measured in Biochemical System Using Plate Reader - 2163-02_Inhibitor_Dose_CherryPick_Activity.; type: functional, Mycobacterium tuberculosis UT205
Sequence of Adenosylmethionine-8-amino-7-oxononanoate aminotransferase (P9WQ81 whole entry): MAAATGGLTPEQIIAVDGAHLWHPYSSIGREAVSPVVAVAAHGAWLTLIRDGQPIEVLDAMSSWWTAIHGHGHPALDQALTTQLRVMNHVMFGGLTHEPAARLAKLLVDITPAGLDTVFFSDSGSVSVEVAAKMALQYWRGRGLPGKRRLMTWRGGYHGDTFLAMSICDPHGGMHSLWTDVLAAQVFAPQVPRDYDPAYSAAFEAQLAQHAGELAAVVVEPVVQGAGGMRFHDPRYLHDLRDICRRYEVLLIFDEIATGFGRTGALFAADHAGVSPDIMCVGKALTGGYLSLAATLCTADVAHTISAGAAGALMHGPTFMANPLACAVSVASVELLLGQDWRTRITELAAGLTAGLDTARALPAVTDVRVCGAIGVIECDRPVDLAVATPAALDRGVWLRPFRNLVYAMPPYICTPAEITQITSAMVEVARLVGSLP

With `COCCNc1nc(NCc2cc(-c3ccc(OC)cc3)no2)c2sccc2n1` the IC50 [1] was 9.53 µM (active) and the IC50 [2] was 23.3 µM (inactive).
For `C=C1CCc2c([nH]c3ccc(OCC(C)C)cc23)C1=O`, the AC50 [3] was 2.08 µM (active), the AC50 (INS1) was 3.69 µM (active) and the IC50 (Melanocortin receptor 4) was 6.05 µM (active). The IC50 [4] was > 64.6 µM (inactive), the AC50 (Paired box protein Pax-8) was 6.14 µM (active) and the AC50 [5] was 35.6 µM (active).
For `CC(=O)NC(c1ccc(C)cc1)c1cc([N+](=O)[O-])c2cccnc2c1O` (configuration not stated), the EC50 [6] was 47.2 µM (active), the EC50 [7] was 0.334 µM (active) and the EC50 [8] was 1.16 µM (active). For the same compound, the EC50 [9] was > 180 µM (inactive), the EC50 [10] was < 6 µM (inconclusive) and the IC50 (Beta-galactosidase) was > 66.6 µM (inactive). The EC50 [11] was 40.3 µM (active).
In the case of `Cc1ccc2cccc(OCC(=O)NCCC3=CCCCC3)c2n1`, the IC50 [12] is reported as 4.06 µM (active), the IC50 (Steroidogenic factor 1) is reported as 2.83 µM (active) and the IC50 [13] is reported as 35.8 µM (inactive).
In the case of `O=C(Nc1ccc2c(c1)[C@H]1C[C@@H](CC(=O)N3CCc4ccccc4C3)O[C@@H](CO)[C@H]1O2)c1cccnc1`, the AC50 [14] is reported as 10.5 µM (active).
With `O=C(CCl)NCCCN(C(=O)C(Cl)Cl)c1ccc([N+](=O)[O-])cc1` the IC50 [12] was 7.45 µM (active), the IC50 (Steroidogenic factor 1) was 4.97 µM (active) and the IC50 [13] was 18.8 µM (inactive).
